Activity calls are given as the source filed them.
What was measured:
BJ [1] = assay: BJ-TERT fibroblast viability loss – cell-based, RAS-independent, luminescence, dose response (AID 1933); type: functional; conditions: Homo sapiens
BJ [2] = assay: cells; type: functional, cell-based; conditions: Homo sapiens
BJ [3] = assay: BJ-TERT-LT-ST fibroblast viability loss – cell-based, RAS-independent, luminescence, dose response (AID 1935); type: functional; conditions: Homo sapiens;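 further: BJ fibroblasts immortalized with TERT plus LT and ST oncogenes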
[4] = DRD fibroblast viability loss – cell-based, non-viral oncogenic, luminescence, dose response (AID 1934); type: functional; conditions: Homo sapiens
Prothrombin = Prothrombin (Homo sapiens, UniProt P00734); assay: Thrombin 1536 HTS Dose Response Confirmation. [Related pubchem assays: 1046 (Thrombin 1536 HTS; hits were confirmed in this assay)]; type: functional
[5] = molecular target: Voltage-dependent T-type calcium channel subunit alpha-1H (Homo sapiens, UniProt O95180); type: functional;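 further: channel activity triggered by adding a high calcium stimulation buffer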
Sequence of Voltage-dependent T-type calcium channel subunit alpha-1H (O95180 whole entry): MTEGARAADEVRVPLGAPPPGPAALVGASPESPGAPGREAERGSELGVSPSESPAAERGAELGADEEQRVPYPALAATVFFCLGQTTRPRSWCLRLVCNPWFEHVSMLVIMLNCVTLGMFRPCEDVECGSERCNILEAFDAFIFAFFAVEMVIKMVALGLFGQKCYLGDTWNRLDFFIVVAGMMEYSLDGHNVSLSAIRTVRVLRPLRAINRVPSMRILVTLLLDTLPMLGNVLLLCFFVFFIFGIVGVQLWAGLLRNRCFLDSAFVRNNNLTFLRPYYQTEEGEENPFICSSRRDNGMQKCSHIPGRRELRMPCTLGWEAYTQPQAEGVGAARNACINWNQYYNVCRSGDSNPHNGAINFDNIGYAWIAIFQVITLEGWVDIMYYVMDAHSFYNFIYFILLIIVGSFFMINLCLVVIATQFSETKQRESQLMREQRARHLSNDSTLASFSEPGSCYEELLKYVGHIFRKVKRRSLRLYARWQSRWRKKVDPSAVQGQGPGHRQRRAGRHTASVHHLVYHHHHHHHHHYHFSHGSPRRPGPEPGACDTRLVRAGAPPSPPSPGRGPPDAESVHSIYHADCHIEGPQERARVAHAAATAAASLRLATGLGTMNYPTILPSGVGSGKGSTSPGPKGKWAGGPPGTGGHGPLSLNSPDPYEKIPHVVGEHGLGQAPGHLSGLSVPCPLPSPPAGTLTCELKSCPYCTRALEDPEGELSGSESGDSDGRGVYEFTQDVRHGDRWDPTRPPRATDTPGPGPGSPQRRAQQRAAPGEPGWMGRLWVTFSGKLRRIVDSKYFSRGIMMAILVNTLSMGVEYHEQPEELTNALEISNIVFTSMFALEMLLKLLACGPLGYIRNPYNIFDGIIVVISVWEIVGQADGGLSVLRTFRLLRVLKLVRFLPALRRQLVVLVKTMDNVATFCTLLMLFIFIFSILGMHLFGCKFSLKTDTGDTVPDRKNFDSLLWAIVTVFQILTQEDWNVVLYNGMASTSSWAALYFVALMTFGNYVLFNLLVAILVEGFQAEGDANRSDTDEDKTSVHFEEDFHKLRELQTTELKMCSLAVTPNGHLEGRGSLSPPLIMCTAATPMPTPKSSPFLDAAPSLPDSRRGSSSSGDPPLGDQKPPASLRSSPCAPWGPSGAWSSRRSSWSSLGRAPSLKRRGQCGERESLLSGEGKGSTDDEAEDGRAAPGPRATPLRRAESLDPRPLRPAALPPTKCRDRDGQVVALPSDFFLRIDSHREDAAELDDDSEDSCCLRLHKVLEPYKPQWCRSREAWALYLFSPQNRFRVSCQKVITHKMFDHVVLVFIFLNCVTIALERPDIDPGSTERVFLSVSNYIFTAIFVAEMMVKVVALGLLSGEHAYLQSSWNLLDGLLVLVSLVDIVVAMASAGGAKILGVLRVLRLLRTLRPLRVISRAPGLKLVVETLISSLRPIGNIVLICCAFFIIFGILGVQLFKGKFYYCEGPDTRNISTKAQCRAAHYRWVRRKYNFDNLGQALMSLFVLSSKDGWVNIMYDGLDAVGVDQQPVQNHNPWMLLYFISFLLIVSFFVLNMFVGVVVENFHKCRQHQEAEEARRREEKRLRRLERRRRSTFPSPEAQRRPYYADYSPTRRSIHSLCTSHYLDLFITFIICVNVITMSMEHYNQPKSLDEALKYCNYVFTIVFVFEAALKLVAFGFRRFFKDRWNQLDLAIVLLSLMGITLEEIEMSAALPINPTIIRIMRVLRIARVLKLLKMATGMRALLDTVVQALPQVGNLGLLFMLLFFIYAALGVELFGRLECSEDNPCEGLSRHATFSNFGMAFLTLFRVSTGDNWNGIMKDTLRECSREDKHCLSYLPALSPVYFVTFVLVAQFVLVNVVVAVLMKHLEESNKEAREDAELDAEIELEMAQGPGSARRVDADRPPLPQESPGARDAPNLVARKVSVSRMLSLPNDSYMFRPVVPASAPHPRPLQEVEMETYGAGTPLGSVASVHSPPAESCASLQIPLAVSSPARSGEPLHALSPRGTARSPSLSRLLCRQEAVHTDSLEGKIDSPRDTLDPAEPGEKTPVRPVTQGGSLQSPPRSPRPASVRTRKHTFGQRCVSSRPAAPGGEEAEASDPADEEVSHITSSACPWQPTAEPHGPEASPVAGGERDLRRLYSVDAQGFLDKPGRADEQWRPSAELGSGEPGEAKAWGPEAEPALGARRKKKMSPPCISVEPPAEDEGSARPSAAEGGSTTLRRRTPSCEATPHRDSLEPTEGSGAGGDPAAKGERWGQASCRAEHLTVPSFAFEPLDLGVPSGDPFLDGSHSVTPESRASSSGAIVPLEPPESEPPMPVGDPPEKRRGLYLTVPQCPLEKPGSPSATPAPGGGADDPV

Protein skinhead-1 = molecular target: T1, Protein skinhead-1 (Caenorhabditis elegans, UniProt P34707); type: functional
T1 sequence (P34707 whole entry): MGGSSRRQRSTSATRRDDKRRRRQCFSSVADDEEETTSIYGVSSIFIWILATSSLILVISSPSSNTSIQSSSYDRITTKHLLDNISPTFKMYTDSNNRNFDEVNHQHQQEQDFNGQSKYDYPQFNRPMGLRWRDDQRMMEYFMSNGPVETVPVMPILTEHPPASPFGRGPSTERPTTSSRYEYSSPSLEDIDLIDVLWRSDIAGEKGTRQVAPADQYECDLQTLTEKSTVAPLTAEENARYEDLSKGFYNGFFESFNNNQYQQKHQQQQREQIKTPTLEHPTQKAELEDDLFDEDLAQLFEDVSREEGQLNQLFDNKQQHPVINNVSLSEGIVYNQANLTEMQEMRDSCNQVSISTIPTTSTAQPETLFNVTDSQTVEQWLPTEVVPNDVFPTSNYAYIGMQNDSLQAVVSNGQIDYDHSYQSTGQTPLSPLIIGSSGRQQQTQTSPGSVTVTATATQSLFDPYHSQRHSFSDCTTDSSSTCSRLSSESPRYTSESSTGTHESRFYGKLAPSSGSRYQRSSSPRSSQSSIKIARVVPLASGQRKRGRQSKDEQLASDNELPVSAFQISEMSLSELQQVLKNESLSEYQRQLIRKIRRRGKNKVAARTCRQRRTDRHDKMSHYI

[6] = NIH-3T3 fibroblast cytotoxicity, dose response, cytotoxicity control, cell-based, fluorescence, Alamar Blue, secondary assay (AID 2327); type: functional;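 further: NIH-3T3 mouse fibroblasts cultured with fluconazole at 8 µg/mL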
[7] = fluconazole-exposed Candida albicans growth modulators – fluorescence, retest, confirmation (AID 2467); type: functional, cell-based
[8] = molecular target: T2, Adenosylmethionine-8-amino-7-oxononanoate aminotransferase (Mycobacterium tuberculosis, UniProt P9WQ81); assay: Mycobacterium tuberculosis BioA enzyme inhibitor Measured in Biochemical System Using Plate Reader - 2163-02_Inhibitor_Dose_CherryPick_Activity.; type: functional, Mycobacterium tuberculosis UT205
T2 sequence (P9WQ81 whole entry): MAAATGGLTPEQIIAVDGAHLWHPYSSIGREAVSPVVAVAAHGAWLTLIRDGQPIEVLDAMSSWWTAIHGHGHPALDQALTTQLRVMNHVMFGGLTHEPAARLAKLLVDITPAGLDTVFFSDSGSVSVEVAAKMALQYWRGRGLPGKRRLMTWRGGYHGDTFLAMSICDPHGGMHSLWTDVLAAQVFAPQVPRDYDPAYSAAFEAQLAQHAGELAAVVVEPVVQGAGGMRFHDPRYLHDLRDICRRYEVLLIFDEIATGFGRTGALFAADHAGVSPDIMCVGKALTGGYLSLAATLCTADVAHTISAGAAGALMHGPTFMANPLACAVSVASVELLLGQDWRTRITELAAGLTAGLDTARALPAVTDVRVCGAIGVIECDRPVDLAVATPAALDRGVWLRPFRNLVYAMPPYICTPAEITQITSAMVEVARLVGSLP

[9] = molecular target: T3, Ubiquitin-conjugating enzyme E2 N (Homo sapiens, UniProt P61088); type: functional;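 further: Dose-response confirmation in a TR-FRET assay detecting UBC13-driven polyubiquitin chain formation, inhibition measured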
T3 sequence (P61088 whole entry): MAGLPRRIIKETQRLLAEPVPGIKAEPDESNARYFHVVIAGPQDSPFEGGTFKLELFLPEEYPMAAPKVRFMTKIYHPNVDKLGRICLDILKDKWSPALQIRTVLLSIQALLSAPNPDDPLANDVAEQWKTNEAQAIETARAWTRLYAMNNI

Fatty acid synthase [10] = molecular target: T4, Fatty acid synthase (Homo sapiens, UniProt P49327); assay: inhibition of human FAS-TE enzyme activity – biochemical, endpoint fluorescence intensity, uHTS hits, dose response (AID 624327); type: functional;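 further: fluorescence from hydrolysis of an O-methyl fluorescein acyl ester substrate by the enzyme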
T4 sequence (P49327 whole entry): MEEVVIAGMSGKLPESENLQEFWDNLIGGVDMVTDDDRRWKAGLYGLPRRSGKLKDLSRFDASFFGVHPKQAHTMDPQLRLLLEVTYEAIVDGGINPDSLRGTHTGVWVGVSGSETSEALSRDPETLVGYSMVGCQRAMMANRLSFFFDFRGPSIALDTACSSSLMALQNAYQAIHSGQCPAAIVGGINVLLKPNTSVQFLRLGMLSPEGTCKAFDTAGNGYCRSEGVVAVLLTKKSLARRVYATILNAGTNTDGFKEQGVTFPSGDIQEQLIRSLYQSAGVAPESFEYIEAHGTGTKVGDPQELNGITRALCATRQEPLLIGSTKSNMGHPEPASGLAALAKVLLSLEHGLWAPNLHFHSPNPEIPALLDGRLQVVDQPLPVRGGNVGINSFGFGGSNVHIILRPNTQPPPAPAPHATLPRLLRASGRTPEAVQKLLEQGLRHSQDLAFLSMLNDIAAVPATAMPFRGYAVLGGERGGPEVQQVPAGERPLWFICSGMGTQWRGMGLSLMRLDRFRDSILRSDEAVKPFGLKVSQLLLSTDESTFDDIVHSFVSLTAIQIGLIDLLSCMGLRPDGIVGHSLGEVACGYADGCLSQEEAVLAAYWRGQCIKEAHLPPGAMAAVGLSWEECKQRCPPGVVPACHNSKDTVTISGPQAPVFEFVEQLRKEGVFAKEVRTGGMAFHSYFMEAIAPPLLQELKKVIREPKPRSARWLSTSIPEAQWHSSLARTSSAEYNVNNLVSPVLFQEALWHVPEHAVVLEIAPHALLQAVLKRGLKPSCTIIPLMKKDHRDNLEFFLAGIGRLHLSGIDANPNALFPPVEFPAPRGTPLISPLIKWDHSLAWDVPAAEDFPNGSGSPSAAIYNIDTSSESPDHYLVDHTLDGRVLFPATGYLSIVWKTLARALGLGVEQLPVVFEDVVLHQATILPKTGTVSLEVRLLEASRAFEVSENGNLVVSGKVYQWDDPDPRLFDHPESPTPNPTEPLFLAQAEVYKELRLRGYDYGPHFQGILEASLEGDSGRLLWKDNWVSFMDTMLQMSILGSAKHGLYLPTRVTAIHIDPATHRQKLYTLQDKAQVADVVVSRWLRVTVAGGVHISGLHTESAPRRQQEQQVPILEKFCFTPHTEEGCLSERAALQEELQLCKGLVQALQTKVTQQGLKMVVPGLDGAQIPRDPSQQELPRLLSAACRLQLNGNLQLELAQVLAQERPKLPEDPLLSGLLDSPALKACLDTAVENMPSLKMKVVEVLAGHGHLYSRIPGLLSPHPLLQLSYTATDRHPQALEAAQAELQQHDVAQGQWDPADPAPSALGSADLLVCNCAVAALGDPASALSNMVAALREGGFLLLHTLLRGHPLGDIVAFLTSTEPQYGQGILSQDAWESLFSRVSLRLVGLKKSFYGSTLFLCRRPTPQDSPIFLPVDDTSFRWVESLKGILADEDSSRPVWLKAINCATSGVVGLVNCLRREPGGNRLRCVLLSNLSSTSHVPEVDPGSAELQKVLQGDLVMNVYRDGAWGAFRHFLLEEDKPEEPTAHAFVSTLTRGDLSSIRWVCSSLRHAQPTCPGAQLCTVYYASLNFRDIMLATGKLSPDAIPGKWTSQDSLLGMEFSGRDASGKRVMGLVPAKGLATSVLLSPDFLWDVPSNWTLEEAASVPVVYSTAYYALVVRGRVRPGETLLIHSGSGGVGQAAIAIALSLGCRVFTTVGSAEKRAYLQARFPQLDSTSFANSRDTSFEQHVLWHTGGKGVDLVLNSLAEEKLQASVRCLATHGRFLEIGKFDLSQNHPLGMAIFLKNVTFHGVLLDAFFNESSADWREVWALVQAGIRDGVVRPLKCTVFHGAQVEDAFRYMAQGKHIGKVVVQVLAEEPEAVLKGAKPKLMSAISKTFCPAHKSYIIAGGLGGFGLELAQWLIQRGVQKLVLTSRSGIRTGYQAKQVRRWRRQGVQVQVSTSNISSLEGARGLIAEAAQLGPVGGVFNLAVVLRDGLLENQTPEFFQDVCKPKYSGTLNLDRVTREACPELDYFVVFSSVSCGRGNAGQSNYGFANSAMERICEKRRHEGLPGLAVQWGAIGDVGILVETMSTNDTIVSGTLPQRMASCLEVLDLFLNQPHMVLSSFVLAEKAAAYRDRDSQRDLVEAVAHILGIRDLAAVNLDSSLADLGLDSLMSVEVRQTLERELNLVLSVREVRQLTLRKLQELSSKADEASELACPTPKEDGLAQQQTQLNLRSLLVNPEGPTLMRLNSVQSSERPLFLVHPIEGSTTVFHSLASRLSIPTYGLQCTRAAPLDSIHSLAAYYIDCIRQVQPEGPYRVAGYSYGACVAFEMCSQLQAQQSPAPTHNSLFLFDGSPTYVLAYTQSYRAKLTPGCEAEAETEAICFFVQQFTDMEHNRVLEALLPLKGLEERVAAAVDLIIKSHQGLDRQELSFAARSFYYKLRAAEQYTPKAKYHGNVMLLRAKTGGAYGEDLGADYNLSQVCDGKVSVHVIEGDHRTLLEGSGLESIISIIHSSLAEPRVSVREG

Fatty acid synthase [11] = molecular target: T4, Fatty acid synthase; assay: inhibition of human FAS-TE enzyme activity – biochemical, kinetic fluorescence intensity, dose response (AID 624326); type: functional;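 further: rate of fluorescence rise from hydrolysis of a fluorogenic O-methyl fluorescein ester substrate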
[12] = luciferase reporter signal suppression in cells – H4 neuroglioma cells, luminescence, dose response (AID 1990); type: functional, cell-based
[13] = Luminescence Cell-Based Dose Response HTS to Identify Inhibitors of 5'UTR Stem-Loop Driven Prion Protein mRNA Translation in H4 Neuroglioblastoma Cells. [Related pubchem assays: 1827 (Project Summary), 1813 (Primary HTS)]; type: functional
[14] = alpha-synuclein stem-loop luciferase translation blockers – H4 neuroglioma cells, luminescence, confirmation (AID 1988); type: functional, cell-based
[15] = molecular target: T5, Carboxy-terminal domain RNA polymerase II polypeptide A small phosphatase 1 (Homo sapiens, UniProt Q9GZU7); assay: CTDSP1 inhibitors, concentration-response, biochemical, absorbance readout, ultra-high-throughput screen actives (AID 540297); type: functional
T5 sequence (Q9GZU7 whole entry): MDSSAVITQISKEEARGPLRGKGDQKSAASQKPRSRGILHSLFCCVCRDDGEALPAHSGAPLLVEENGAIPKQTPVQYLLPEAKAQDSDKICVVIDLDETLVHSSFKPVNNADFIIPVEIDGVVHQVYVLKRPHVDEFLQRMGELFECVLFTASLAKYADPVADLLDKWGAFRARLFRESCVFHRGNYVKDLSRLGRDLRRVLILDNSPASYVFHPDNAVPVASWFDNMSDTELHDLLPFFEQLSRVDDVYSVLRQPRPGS

Caspase-6 = molecular target: T6, Caspase-6 (Homo sapiens, UniProt P55212); assay: inhibition of CASP6 peptide cleavage – biochemical, VEID-R110 fluorescence, cherry-pick, dose response (AID 720632)
T6 sequence (P55212 whole entry): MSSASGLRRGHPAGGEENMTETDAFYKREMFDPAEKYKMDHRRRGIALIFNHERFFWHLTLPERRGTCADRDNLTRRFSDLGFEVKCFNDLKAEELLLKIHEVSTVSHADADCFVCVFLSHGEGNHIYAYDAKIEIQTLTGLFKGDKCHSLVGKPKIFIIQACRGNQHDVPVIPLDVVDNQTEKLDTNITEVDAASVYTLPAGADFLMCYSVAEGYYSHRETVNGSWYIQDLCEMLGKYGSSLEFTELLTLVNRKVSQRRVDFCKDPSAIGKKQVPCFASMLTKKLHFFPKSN

[16] = Luminescence Cell-Based Dose Retest to Confirm Inhibitors of Cancer Stem Cells. [Related pubchem assays (depositor defined):AID2717, AID2721]; type: functional; conditions: Homo sapiens
[17] = intracellular Trypanosoma cruzi inhibitors in host cells – cell-based, plate reader, cherry-pick samples, set 3, dose response (AID 651818); type: functional;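 further: compounds incubated with infected cells for about four days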
[18] = Luminescence-based cell-based high throughput dose response assay to identify activators of the DAF-12 from the parasite S. stercoralis (ssDAF-12).; type: functional

Compound: CCOc1cc(C2C(C#N)=C(N)OC(C)=C2C(C)=O)c(Br)c(Br)c1OC(C)C (configuration not stated)
- EC50 (BJ [1]): 2.17 µM (active)
- EC50 (BJ [2]): 14 µM (inconclusive)
- EC50 (BJ [3]): 2.72 µM (inconclusive)
- EC50 [4]: 3.46 µM (active)

Compound: Cc1ccc(N2C(S)=NC3c4ccccc4OC2(C)C3C(=O)N(C)C)cc1 (configuration not stated)
- IC50 (Prothrombin): > 50 µM (inconclusive)

Compound: O=C(CSc1ccc(Cl)cc1)N1CCN(c2ncc(C(F)(F)F)cc2Cl)CC1
- EC50 [5]: 5.86 µM (active)
- IC50 (Protein skinhead-1): > 100 µM (inactive)

Compound: CCCc1nc(NC(C)=O)c(C#N)c(-c2ccco2)c1CC
- IC50 (Prothrombin): > 50 µM (not active)

Compound: O=C(Nc1cccc(F)c1)C1CCN(c2nnnn2-c2ccccc2)CC1
- EC50 [5]: 53.6 µM (active)

Compound: O=C(C[n+]1cc(-c2ccc(Cl)cc2)n2c1CCC2)N1c2ccccc2Sc2ccccc21
- EC50 [6]: > 160 µM (inconclusive)
- EC50 [7]: > 38 µM (not active)
- AC50 [8]: 6.34 µM (active)

Compound: NC(=S)N=Nc1c(O)n(CCCl)c2ccc(Br)cc12
- IC50 [9]: > 20 µM (inactive)

Compound: CCOc1ccc(N(C(=O)c2snc(C(N)=O)c2N)C(C(=O)NCC2CCCO2)c2ccc(C)o2)cc1 (configuration not stated)
- IC50 [9]: > 20 µM (inactive)

Compound: Cc1nc2sc(C(c3ccc(Cl)cc3)N3CCN(c4ccccc4F)CC3)c(O)n2n1 (configuration not stated)
- AC50 [8]: 1.69 µM (active)

Compound: COc1ccc(-c2nc3cnccn3c2Nc2ccc3c(c2)OCO3)cc1
- AC50 [8]: 0.702 µM (active)

Compound: O=C(NCc1ccc(F)cc1)C(C(=O)NCc1ccc(F)cc1)c1ncc(C(F)(F)F)cc1Cl
- IC50 (Fatty acid synthase [10]): 7.79 µM (active)
- IC50 (Fatty acid synthase [11]): 11.8 µM (active)

Compound: CCOc1ccc(-n2c(SCc3ccc([N+](=O)[O-])cc3)nnc2-c2ccccc2)cc1
- EC50 [12]: 15.5 µM (active)
- EC50 [13]: 69.4 µM (active)
- EC50 [14]: 24.9 µM (active)
- IC50 (Fatty acid synthase [10]): 6.83 µM (active)
- IC50 (Fatty acid synthase [11]): 5.2 µM (active)

Compound: O=C(COC(=O)c1cc([N+](=O)[O-])ccc1N1CCOCC1)c1ccc(F)cc1
- IC50 (Fatty acid synthase [10]): 5.45 µM (active)
- IC50 (Fatty acid synthase [11]): 9.03 µM (active)

Compound: COc1ccc(OCC(=O)N2CCN(Cc3ccc(SC)cc3)CC2)cc1
- IC50 (Prothrombin): > 50 µM (not active)

Compound: CCN(CC)S(=O)(=O)c1ccc2c(c1)c(=O)c(C(=O)NCc1cccs1)cn2C
- IC50 (Prothrombin): 0.0331 µM (active)

Compound: O=C(CSc1ncn(-c2ccccc2)n1)Nc1ccc(Br)cn1
- EC50 [5]: 5.67 µM (active)

Compound: O=[N+]([O-])c1ccc(Sc2n[nH]c(-c3ccc(Cl)cc3Cl)n2)nc1
- IC50 (Fatty acid synthase [10]): 7.15 µM (active)
- IC50 (Fatty acid synthase [11]): 8.25 µM (active)

Compound: O=C(NNC(=O)c1ccccc1Br)c1ccc2nc[nH]c2c1
- IC50 [15]: 7.34 µM (active)
- AC50 (Caspase-6): 23.6 µM (active)

Compound: CC(=O)CSc1nnc(CSc2ncccn2)n1C1CCCCC1
- AC50 [8]: 13.9 µM (active)

Compound: CCN(Cc1ccccc1)C(=O)CCc1nc(-c2ccc(C)cc2)no1
- EC50 [5]: 4.8 µM (active)

Compound: CCC(C)(C)NC(=O)CN(C(=O)c1snc(C(N)=O)c1N)c1ccc2c(c1)OCCO2
- IC50 [9]: > 20 µM (inactive)

Compound: CSCCC(NC(=O)c1cccc(C)c1)C(=O)OCC(=O)NC(=O)c1cccn1C (configuration not stated)
- IC50 (Prothrombin): 39 µM (active)

Compound: COc1cc(OC)cc(-c2sc3ccc(OC)cc3c2C#CC2(N)CCCCC2)c1
- AC50 [16]: 2.96 µM (active)
- IC50 [9]: > 20 µM (inactive)

Compound: O=C(CSc1nnc(-c2ccncc2)n1-c1ccc(Cl)cc1)NCc1cccs1
- AC50 [8]: 9.86 µM (active)

Compound: C[C@@H]1CN([C@@H](C)CO)C(=O)c2cccc(NS(=O)(=O)c3ccc(Cl)cc3)c2O[C@@H]1CN(C)Cc1ccc(Oc2ccccc2)cc1
- AC50 [17]: 4.87 µM (active)

Compound: C[C@H]1CN([C@@H](C)CO)C(=O)c2cccc(NC(=O)Nc3ccccc3)c2O[C@H]1CN(C)C(=O)Nc1ccc2c(c1)OCO2
- AC50 [17]: 20 µM (inactive)

Compound: C[C@H](CO)N1C[C@H](C)[C@H](CN(C)Cc2ccc(Cl)c(Cl)c2)Oc2c(NC(=O)c3nc4ccccc4s3)cccc2C1=O
- AC50 [17]: 6.38 µM (active)

Compound: C[C@@H]1CN([C@H](C)CO)C(=O)c2cc(NC(=O)Nc3ccc4c(c3)OCO4)ccc2O[C@@H]1CN(C)Cc1ccc(-c2ccccc2)cc1
- AC50 [17]: 2.72 µM (active)

Compound: COc1ccc(NC(=O)Nc2ccc3c(c2)CC(=O)N([C@@H](C)CO)C[C@H](C)[C@@H](CN(C)Cc2ccc(C(F)(F)F)cc2)O3)cc1
- AC50 [17]: 5.55 µM (active)

Compound: C[C@@H]1CN([C@@H](C)CO)C(=O)Cc2cc(NC(=O)Nc3ccccc3)ccc2O[C@@H]1CN(C)Cc1ccc(C(=O)Nc2ccccc2N)cc1
- AC50 [17]: 2.04 µM (active)

Compound: Nc1nc(=O)n(C2CC(O)C(CO)O2)cc1Cl (configuration not stated)
- IC50 [18]: > 67.6 µM (inactive)

Compound: COc1ccccc1N1CCN(CC(O)COc2cccc3ccccc23)CC1 (configuration not stated) [NAFTOPIDIL]
- EC50 [5]: 3.72 µM (active)
